Source: patent publication US11254944B2, “Agrobacterium derived cell penetrating peptides as nanocarriers” (priority 2017, dated 2022)
Where a SMILES comes first, the peptide text is derived from it. The star is where a group is joined. FITC = O=C1OC2(c3ccc(O)cc3Oc3cc(O)ccc32)c2ccc(NC(=S)*)cc21

Key:
root tips and leaf bases = test: Reporter protein (β-glucuronidase) delivery by Vir in root tips and leaf bases; assay type: cell-based, T. aestivum; details: β-glucuronidase 1 μg, Vir 15 μM
Description: (§1) FIG. 6: illustrates an analysis of cargo delivery ability of Vir peptide in plant and mammalian systems. Macromolecule delivery by Vir in (A) Protoplast of wheat (B) leaf bases (C) root tips with (a) no peptide (b) GUS buffer only (c) β-glucuronidase only (d) Vir only (e) Vir-β-galactosidase; (D) HeLa cells with (a) non peptide (b) X-gal staining solution only (c) β-galactosidase only (d) Vir only (e) Vir-β-galactosidase.
(§2) In one embodiment, the ability of the peptide nanocarrier to deliver macromolecular cargoes in cells is evaluated by using β-glucuronidase enzyme as the reporter protein whereas β-galactosidase is employed for delivery in mammalian cells. The reporter proteins are non-covalently complexed with peptide nanocarrier, SEQ ID NO: 3 with the sequence KRPRRKRARGNRR at room temperature for 1 hr. The reporter proteins are used at a concentration of 1 μg while the peptide nanocarrier is used at the optimized concentration that is, 15 μM for complex formation. The peptide-protein complexes thus formed, were incubated with mammalian cells, plant protoplasts and tissues (root tips and leaf bases) further for 1 hour at 18-37 deg C. and room temperature, at pH range from 5.5 to 7.5 respectively. The enzyme delivery by peptide nanocarrier is examined by staining the cells with respective staining solutions. […]

HeLa cells [1] = test: Cellular uptake of FITC-Vir in HeLa cells (confocal microscopy, flow cytometry); assay type: cell-based
Method: FIG. 4: illustrates the cellular translocation of FITC-Vir in HeLa cells (A) confocal microscopy (a) Untreated (b) Vir (15 μM) (c) Tat (5 μM) (d) M-Tat (5 μM) (e) Dextran Sulphate (5 μM). (B) Quantitative estimation of uptake in HeLa cells as assessed by flow cytometry.
(§3) FIG. 2 illustrates that in case of protoplasts, the uptake of Vir is affected in the presence of either endocytic inhibitors.
In one such embodiment, a method of targeting and delivering macromolecules to HeLa cells, as representative of mammalian system, using the peptide nanocarrier includes incubating the HeLa cells with the agrobacterium derived cell penetrating peptide nanocarrier Vir.
(§4) In the said embodiment, a process for identification of optimum concentration of the nano-carrier Vir in the HeLa cells is substantially the same as identification of optimum concentration of the nano-carrier Vir in the mesophyll protoplasts of T. aestivum as discussed above and is illustrated in FIG. 4. It is observed that the internalization in HeLa cells starts from 5 μM but a distinct nuclear localization is observed from 15 μM onwards as shown in FIG. 4. As observed with protoplasts, the peptide uptake in HeLa cells also increases with increasing concentration of peptide with 60-70% cells showing uptake at 15 μM and more than 90% cells showing uptake at 30 μM. However, unlike protoplasts, the viability of HeLa cells is not compromised greatly as 94% cells remained viable at 15 μM and 84% cells at 30 μM.

Protoplast of wheat = test: Reporter protein (β-glucuronidase) delivery by Vir in wheat protoplasts; assay type: cell-based, T. aestivum; details: β-glucuronidase 1 μg, Vir 15 μM
Description: as §1, §2

[2] = Viability of HeLa cells after peptide incubation; assay type: cell-based; details: human, read-out: cells remained viable
Method: as §4

HeLa cells [3] = test: Reporter protein (β-galactosidase) delivery by Vir in HeLa cells; assay type: cell-based; details: β-galactosidase 1 μg, Vir 15 μM
Description: as §1, §2

[4] = tested on: mesophyll protoplasts of T. aestivum; test: Cellular uptake of FITC-Vir in mesophyll protoplasts (confocal microscopy, fluorimetry); assay type: cell-based; details: for CPP activity compared with the parent peptide: 15 μM
Method: FIG. 2: illustrates the cellular internalization of FITC-Vir in mesophyll protoplasts of T. aestivum (A) Confocal microscopic images of cellular uptake (a) untreated (No peptide) (b) Vir (15 μM) (c) Tat (5 μM) (d) M-Tat (5 μM) (e) Dextran Sulphate (5 μM). (B) Quantitative estimation of uptake in protoplasts as assessed by fluorimetry.
In the said embodiment, a process for identification of optimum concentration and mechanism of cellular uptake of Vir of the peptide nano-carrier in the mesophyll protoplasts of T. aestivum is described below and illustrated in FIG. 2 by employing several endocytic inhibitors such as sodium azide, nocodazole, cytochalasin-D cytochalasin D, and chlorpromazine for blocking different energy-dependent pathways.
It is observed that with increasing concentration, the number of cells internalizing the peptide also increases proportionally.
as §3
The viability of the protoplasts is affected at higher concentrations of the peptide, as a drop of 20-30% at 15 μM and 60-70% at 30 μM in the percentage of viable cells is observed with respect to untreated cells (viability 90%).

[5] = tested on: root tips and leaf bases of T. aestivum; test: Translocation of Vir in meristematic tissues (root tips, leaf bases); assay type: cell-based; details: 5-40 μM
Method: FIG. 3: illustrates the translocation of Vir in various tissues of T. aestivum (A) leaf bases (B) root tips. Different panels represent (a) Untreated (b) Dextran sulphate (5 μM) (c) M-Tat (5 μM) (d) Tat (5 μM) (e) Vir: 5 μM (f) 10 μM (g) 15 μM (h) 20 μM (i) 30 μM (j) 40 μM.
In another embodiment, a method of targeting and delivering macromolecules to a meristematic tissue that is, root tips and leaf bases, of T. aestivum(wheat plant) using the agrobacterium derived cell penetrating peptide nanocarrier Vir includes incubating the meristematic tissues that is, root tips and leaf bases, of T. aestivum with the peptide nanocarrier.
In the said embodiment, a process for identification of optimum concentration of the peptide nanocarrier in the meristematic tissues of T. aestivum is substantially the same as identification of optimum concentration of the nano-carrier Vir in the mesophyll protoplasts of T. aestivum as discussed above and is illustrated in FIG. 3.

| Compound | delivery efficiency (root tips and leaf bases; leaf bases) [%] | delivery efficiency (root tips and leaf bases; root tips) [%] | concentration from which distinct nuclear localization is observed (HeLa cells [1]) [µM] | concentration from which internalization starts (HeLa cells [1]) [µM] | cells showing uptake (HeLa cells [1]; 15 μM) | cells showing uptake (HeLa cells [1]; 30 μM) | cellular uptake reduced (HeLa cells [1]; at 4° C.) [%] | cellular uptake reduced (HeLa cells [1]; in presence of chlorpromazine) [%] | cellular uptake in presence of other inhibitors (HeLa cells [1]; other endocytic inhibitors) | delivery efficiency (Protoplast of wheat) [%] | viability at 15 µM ([2]; 15 μM) [%] | viability at 30 µM ([2]; 30 μM) [%] | efficiency of β-galactosidase delivery (HeLa cells [3]) | cells show uptake [4] | concentration from which prominent nuclear localization is observed [4] [µM] | number of cells exhibiting cellular uptake ([4]; distinct nuclear localization) | uptake in the presence of endocytic inhibitors ([4]; sodium azide, nocodazole, cytochalasin D, chlorpromazine) | uptake in the tissues [5] | CPP activity compared with the parent peptide (HeLa cells [1]; 15 μM) | CPP activity compared with the parent peptide [4] |
| --- | --- | --- | --- | --- | --- | --- | --- | --- | --- | --- | --- | --- | --- | --- | --- | --- | --- | --- | --- | --- |
| C[C@H](NC(=O)[C@H](CCCNC(=N)N)NC(=O)[C@H](CCCCN)NC(=O)[C@H](CCCNC(=N)N)NC(=O)[C@H](CCCNC(=N)N)NC(=O)[C@@H]1CCCN1C(=O)[C@H](CCCNC(=N)N)NC(=O)[C@H](CCCCN)NC(=S)Nc1ccc2c(c1)C(=O)OC21c2ccc(O)cc2Oc2cc(O)ccc21)C(=O)N[C@@H](CCCNC(=N)N)C(=O)NCC(=O)N[C@@H](CC(N)=O)C(=O)N[C@@H](CCCNC(=N)N)C(=O)N[C@@H](CCCNC(=N)N)C(=O)O [Vir, KRPRRKRARGNRR] ({FITC}-KRPRRKRARGNRR-OH; N-terminus and C-terminus assumed) | 90 | 90 | ≥ 15 | ≥ 5 | 60-70% | more than 90% | 20 | 20 | remained unaffected | 50 | 94 | 84 | more than 90% | 10-15% | ≥ 15 | 50-60% | affected | increases with increasing concentration of the peptide |  |  |
| KAPARKRARGNRR [M-Vir1, mutated VirD2 peptide, mutation in KRPR to KAPA] |  |  |  |  |  |  |  |  |  |  |  |  |  |  |  |  |  |  | increased | increased |
| KRPRRKAAAGNRR [M-Vir2, mutated VirD2 peptide, mutation in RKRAR to RKAAA] |  |  |  |  |  |  |  |  |  |  |  |  |  |  |  |  |  |  | remains similar to the parent peptide | remains similar to the parent peptide |
